This is an account of results in patent US10420770B2, “Compositions and methods for treating dementia” (EIP Pharma, LLC, priority 2016, dated 2019).

Assay type in all cases: in vivo, human
In assay [1] the test system is patients with mild cognitive impairment (MCI) due to Alzheimer's disease (AD) or with mild AD. In words: Wechsler Memory Scale (WMS) immediate and delayed recall, 12-week study (Example 1). The settings on record: for patients with improvement from baseline, WMS delayed recall composite score / patients with improvement from baseline, WMS immediate recall composite score: day 84. On the procedure:
In this study, episodic memory was evaluated using the Dutch version of the WMS scale utilizing both verbal and visual information: Logical Memory (LM I & II) test, in which subject is read a story; Verbal-Paired Associates (VPA I & II), in which subject is given pairs of words and asked remember which words go together; and Visual Reproduction (VR I & II)), in which subject is given drawings of specific shapes. Subjects were then asked to recall the information within each test both in an immediate (WMS-Immediate Recall composite) and delayed (WMS-Delayed Recall composite) basis. The total score of the WMS-Immediate Recall component could range from 0 to 136 (0-53 for LMI; 0-40 for VPA I, and 0-43 VR I) and for the WMS-Delayed Recall from 0 to 92 (0-39 for LM II; 0-10 for VPA II, and 0-43 VR II).
Further analysis included Wechsler Memory Scale (WMS) Analyses. The WMS includes three subcategories: immediate recall, delayed recall, and symbol span, each with distinct assessments. Results can be analyzed as two distinct composites scores or as an overall composite score. This evaluation included the overall (score range: 0 to 401), immediate recall (score range: 0 to 136), and delayed recall (score range: 0 to 92) composite scores; the latter two are considered measures of episodic memory. In addition, the Symbol Span sub-component of WMS was analyzed separately (score range: 0 to 50). In all cases, higher scores reflect better cognitive performance.

Assay [2] deals with interleukin-10 (IL-10). Nature of the assay: CSF cytokine measurement (Mesoscale Discovery), IL-10, 6-week study. The conditions noted are these: day 41; after VX-745 reached Cmax in the plasma. On the procedure: Cytokine measurements of CSF samples were done to assess the balance of pro-inflammatory versus anti-inflammatory cytokines. The t-helper type 1/t-helper type 2 (TH1/TH2) multiplex cytokine (IFN-γ, IL-1β, IL-2, IL-4, IL-5, IL-8, IL-10, IL-12p70, IL-13, TNFα ) panel by Mescoscale Discovery were utilized to inform on effects on the relative balance of pro-inflammatory cytokines (e.g. IL-1β, TNFα) versus anti-inflammatory cytokines (e.g., IL-10).
Target engagement was assessed through the evaluation of the effect of drug treatment on CSF biomarkers. CSF was collected at 6 time-points over 24 hours at baseline (the 24 hours prior to first dose) and again at 6 time-points over 24 hours near the end of treatment on Day 40. The samples were evaluated by the Mesoscale Discovery ELISA platform for multiple cytokines ((IFN-γ, IL-1β, IL-2, IL-4, IL-5, IL-8, IL-12 protein 70, IL-13, TNFα, and CSF) and for amyloid-beta peptides (Aβ 38/40/42).

Assay [3] deals with patients with mild cognitive impairment (MCI) due to Alzheimer's disease (AD) or with mild AD. In words: MMSE, 6-week study (Example 2). The conditions noted are these: baseline vs day 40; no statistical analyses. From the text:
The MMSE is a questionnaire used extensively in clinical and research settings to measure mental function. It is commonly used to screen for dementia, and to assess the severity and progression of dementia. The MMSE is an effective way to document a human subject's response to treatment. The test examines functions including registration, attention and calculation, recall, language, ability to follow simple commands and orientation.
Subjects were men and women between 60-85 years old, having a confirmed diagnosis of MCI due to AD or mild AD (consistent with National Institute of Aging and Alzheimer's Association research diagnostic guidelines) and a Mini-Mental State Examination (MMSE) score greater than 20. Inclusion criteria included gradual and progressive decline in memory function reported by patients or informants over more than 6 months; an amnestic presentation on formal neuropsychological testing that was characterized by a pattern of rapid forgetting, as determined by the PI/subinvestigator; evidence of functional decline as evidenced by a CDR sum of box score of ≥0.5; and MMSE score of 17 to 30, inclusive. […] A total of 9 subjects were enrolled and all were included in safety analysis; 8 subjects completed 6 weeks treatment and were included in pharmacodynamics analysis. […]

Assay [4] deals with synaptic function. In words: Quantitative EEG, 6-week study. As for the experimental part:
Quantitative EEG was conducted as a measure of the effects of inflammatory cytokines on synaptic function and the effects of modulation of p38 MAPK on synaptic plasticity. Brain fluorodeoxyglucose (FDG) PET scan was conducted at the Screening Visit and Day 40 to measure brain metabolism. In addition, CSF drug levels of VX-745 were obtained to confirm delivery of drug to the brain.

The mark [5] stands for this setting: Example 1 study (N = 15), Wechsler Memory Scale.

In the case of `O=c1ncn2nc(Sc3ccc(F)cc3F)ccc2c1-c1c(Cl)cccc1Cl` [VX-745], in assay [1] (40 mg group), the “patients with improvement from baseline, WMS delayed recall composite score” value is 8 of 8 and the “patients with improvement from baseline, WMS immediate recall composite score” value was 7 of 8. In addition, in assay [1] (125 mg group), the “patients with improvement from baseline, WMS delayed recall composite score” value is 6 of 7 and the “patients with improvement from baseline, WMS immediate recall composite score” value is listed as 6 of 7. Besides, in assay [1] (Day 84), the “change in all subcomponents of WMS episodic memory composites” value is on record as “statistically significant (P<0.05) increases”. In addition, in assay [1] (Day 84, combined doses, baseline 13.2 (±2.3), p<0.001), the “Mean WMS delayed recall composite score” value is 22.1 (±4.1). Further, the “Mean WMS immediate recall composite score” value in assay [1] (Day 84, n=15 combined doses, baseline 48.4 (±3.8), p=0.005) was 58.4 (±4.3). Moreover, in assay [1] (setting [5]), the “Calculated within-subject treatment effect size (Cohen's d), Delayed Recall” value was “.69” and the “Calculated within-subject treatment effect size (Cohen's d), Immediate Recall” value was “.59”. Further, the “WMS immediate and delayed recall, cognitive analysis” value in assay [1] (nearly all patients, regardless of effect on amyloid plaque) is given as “dose dependent improvement”. For the same compound, the “CSF IL-10 change from baseline” value in assay [2] is reported as “decreased rapidly”. Further, the “MMSE individual subject scores” value in assay [3] was “overall trends are encouraging”. Besides, the EEG result in assay [4] is recorded as “potential positive pharmacodynamics effect”.
